Where “and” joins values, the source holds several entries; their conditions need not be identical. Equal entries are not always repeated.
Assays:
Experiment in all cases: Affinity-purification and mass spectrometry (AP-MS) chemical proteomics, all proteins;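 on Difference: 200 µM free competitor with 20 µM biotin probe overnight in lysate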
Format in all cases: binding
[1] = molecular target: T1, proteins displaced from immobilized biotin-Cmpd 1 pulldowns (U2OS cell lysate) (Homo sapiens, UniProt P27797); conditions: GN=CALR (P27797)
T1 construct: endogenous in cells; host or cells: U2OS
T1 sequence (P27797 18-417): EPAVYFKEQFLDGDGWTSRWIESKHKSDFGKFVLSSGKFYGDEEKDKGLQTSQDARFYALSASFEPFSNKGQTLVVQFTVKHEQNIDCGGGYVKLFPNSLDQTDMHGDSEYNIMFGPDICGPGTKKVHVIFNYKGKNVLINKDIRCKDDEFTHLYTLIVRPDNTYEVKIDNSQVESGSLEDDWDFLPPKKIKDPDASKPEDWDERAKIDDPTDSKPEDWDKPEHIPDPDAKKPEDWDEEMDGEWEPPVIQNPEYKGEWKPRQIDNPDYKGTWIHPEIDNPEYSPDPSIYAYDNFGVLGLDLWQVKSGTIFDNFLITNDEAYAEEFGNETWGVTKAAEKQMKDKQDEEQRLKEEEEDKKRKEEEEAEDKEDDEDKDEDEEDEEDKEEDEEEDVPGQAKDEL
Description: (§1) The samples for AP-MS were prepared following pulldown procedure as previously described with minor modifications. Briefly, U2OS cells were lysed in RIPA buffer and the cell lysate was equally divided into two groups: (1) DMSO group (control group): the cell lysate was incubated with 20 μM biotin-labeled compound 1; (2) Cpmd 1 group (sample group): the cell lysate was incubated with 20 μM biotin-labeled compound 1 and 200 μM free compound 1. Each group contains three biological replicates. They were incubated overnight at 4 °C, then 30 μL streptavidin beads (Thermo Fisher, 20353) was added and incubated at 4 °C for 1 h. The beads were then washed with RIPA buffer for 3 times, 10 min/time.
(§2) Beads were rinsed twice with 50 mM TEAB, pH 7.55, before eluting proteins with 25 μL of 5% SDS, 50 mM TEAB, pH 7.55. The sample was then centrifuged at 17,000 × g for 10 min to remove any debris. Proteins were reduced with 20 mM TCEP (Thermo Fisher, 77720) and incubated at 65 °C for 30 min. The sample was cooled to room temperature and 1 μL of 0.5 M iodoacetamide acid was added and allowed to react for 20 min in dark. Phosphoric acid (12%, 2.75 μL) was added to the protein solution, followed by adding 165 μL of binding buffer (90% methanol, 100 mM TEAB, pH 7.1). The resulting solution was added to S-Trap spin column (protifi.com) and passed through the column using a bench top centrifuge (30 s spin at 4000 × g). The spin column was washed with 400 μL of binding buffer and centrifuged. This step was repeated two more times. Then trypsin was added to the protein mixture at a mass ratio of 1:25 in 50 mM TEAB, pH 8.0, and the sample was incubated at 37 °C for 4 h. Peptides were eluted with 80 μL of 50 mM TEAB, followed by 80 μL of 0.2% formic acid, and finally 80 μL of 50% acetonitrile, 0.2% formic acid. The combined peptide solution was then dried in a speed vac and resuspended in 2% acetonitrile, 0.1% formic acid, 97.9% water and placed in an autosampler vial.
(§3) Samples were analyzed by nanoLC-MS/MS (nanoRSLC, Thermo Fisher) using an Aurora series (Ion Opticks) reversed phase HPLC column (25 cm length × 75 µm inner diameter) and directly injected to an Orbitrap Eclipse (Thermo Fisher) using a 120 min gradient (mobile phase A = 0.1% formic acid, mobile phase B = 99.9% acetonitrile with 0.1% formic acid; hold 2% B for 5 min, 2–6% B in 0.1 min, 6–25% in 100 min, 25–50% in 15 min) at a flow rate of 350 nL/min. Eluted peptide ions were analyzed using a data-dependent acquisition (DDA) method with resolution settings of 120,000 and 15,000 (at m/z 200) for MS1 and MS2 scans, respectively. DDA-selected peptides were fragmented using stepped high energy collisional dissociation (27, 32, and 37%).
(§4) The data of AP-MS were analyzed as a previously described method with minor modifications. Briefly, the raw MS files were searched with MaxQuant software (version 1.6.1.1, www.maxquant.org)[56] against the UniProt human protein database (www.uniprot.org) concatenated with common contaminants and the decoy database. The mass tolerance for precursor ions was set to 20 ppm and 4.5 ppm for the first and main search, respectively. The cysteine carbamidomethylation was set as fixed modification and methionine oxidation and N-terminal acetylation as variable modifications. Enzyme specificity was set to trypsin and a maximum missed cleavage was set as 2. The 1% false discovery rate (FDR) at both peptide and protein levels was applied for the analysis. Relative protein quantification was based on the label-free quantification incorporated in the MaxQuant software. The iBAQ intensity of proteins was obtained for the control and experimental samples. The missing iBAQ intensity was replaced by a random number, which was calculated from a normal distribution with a width of 0.3 and a downshift of 1.8 defined by Perseus software (version 1.6.5.0). The P-value was calculated by performing two-sample Student’s t-test. […]

[2] = molecular target: T2, proteins displaced from immobilized biotin-Cmpd 1 pulldowns (U2OS cell lysate) (Homo sapiens, UniProt Q96EY1); conditions: GN=DNAJA3 (Q96EY1)
T2 construct: endogenous in cells; host or cells: U2OS
Description: as §1, §2, §3, §4

[3] = molecular target: T3, proteins displaced from immobilized biotin-Cmpd 1 pulldowns (U2OS cell lysate) (Homo sapiens, UniProt P47756); conditions: GN=CAPZB (P47756)
T3 construct: endogenous in cells; host or cells: U2OS
T3 sequence (P47756 whole entry): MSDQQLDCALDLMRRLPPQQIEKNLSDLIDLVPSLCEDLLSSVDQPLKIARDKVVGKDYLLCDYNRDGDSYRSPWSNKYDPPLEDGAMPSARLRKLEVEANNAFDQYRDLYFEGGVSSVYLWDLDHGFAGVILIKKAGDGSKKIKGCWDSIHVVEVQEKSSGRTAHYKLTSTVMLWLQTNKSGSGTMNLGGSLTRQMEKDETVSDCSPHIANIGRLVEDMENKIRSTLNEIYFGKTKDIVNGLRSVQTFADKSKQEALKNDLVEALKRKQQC
Description: as §1, §2, §3, §4

[4] = molecular target: T4, proteins displaced from immobilized biotin-Cmpd 1 pulldowns (U2OS cell lysate) (Homo sapiens, UniProt Q9Y5B9); conditions: GN=SUPT16H (Q9Y5B9)
T4 construct: endogenous in cells; host or cells: U2OS
T4 sequence (Q9Y5B9 whole entry): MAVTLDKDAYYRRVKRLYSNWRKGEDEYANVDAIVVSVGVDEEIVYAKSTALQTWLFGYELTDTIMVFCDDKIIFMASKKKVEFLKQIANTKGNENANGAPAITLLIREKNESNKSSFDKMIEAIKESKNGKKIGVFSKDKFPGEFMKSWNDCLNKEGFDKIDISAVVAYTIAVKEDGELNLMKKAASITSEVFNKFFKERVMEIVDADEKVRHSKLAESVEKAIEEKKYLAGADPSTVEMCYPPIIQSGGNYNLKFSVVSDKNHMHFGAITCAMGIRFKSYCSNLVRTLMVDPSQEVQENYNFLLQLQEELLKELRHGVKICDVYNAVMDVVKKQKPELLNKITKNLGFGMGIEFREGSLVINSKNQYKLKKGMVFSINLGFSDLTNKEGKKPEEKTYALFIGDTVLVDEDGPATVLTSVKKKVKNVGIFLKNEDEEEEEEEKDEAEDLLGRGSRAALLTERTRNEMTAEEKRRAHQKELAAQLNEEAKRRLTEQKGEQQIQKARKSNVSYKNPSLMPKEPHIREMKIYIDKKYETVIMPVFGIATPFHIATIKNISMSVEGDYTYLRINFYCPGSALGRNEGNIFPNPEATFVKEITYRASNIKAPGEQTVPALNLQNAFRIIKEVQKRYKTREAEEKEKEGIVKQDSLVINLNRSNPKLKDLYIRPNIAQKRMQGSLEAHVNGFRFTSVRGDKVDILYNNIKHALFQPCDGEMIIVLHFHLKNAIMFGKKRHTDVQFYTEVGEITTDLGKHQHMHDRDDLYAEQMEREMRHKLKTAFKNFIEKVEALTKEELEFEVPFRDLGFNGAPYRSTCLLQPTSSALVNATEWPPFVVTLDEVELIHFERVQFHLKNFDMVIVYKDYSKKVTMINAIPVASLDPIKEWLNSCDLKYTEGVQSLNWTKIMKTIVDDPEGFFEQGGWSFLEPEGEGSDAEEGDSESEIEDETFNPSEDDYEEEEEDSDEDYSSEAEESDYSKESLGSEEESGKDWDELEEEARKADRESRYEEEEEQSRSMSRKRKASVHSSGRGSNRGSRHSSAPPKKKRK
Description: as §1, §2, §3, §4

[5] = molecular target: T5, proteins displaced from immobilized biotin-Cmpd 1 pulldowns (U2OS cell lysate) (Homo sapiens, UniProt P25789); conditions: GN=PSMA4 (P25789)
T5 construct: endogenous in cells; host or cells: U2OS
T5 sequence (P25789 whole entry): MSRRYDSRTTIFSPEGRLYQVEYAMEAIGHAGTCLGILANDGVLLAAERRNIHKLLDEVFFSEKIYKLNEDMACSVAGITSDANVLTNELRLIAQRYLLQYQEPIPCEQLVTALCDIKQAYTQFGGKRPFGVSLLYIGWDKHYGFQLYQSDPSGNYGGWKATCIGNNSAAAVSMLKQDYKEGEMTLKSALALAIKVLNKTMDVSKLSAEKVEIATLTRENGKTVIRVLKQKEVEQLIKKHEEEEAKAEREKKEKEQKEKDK
Description: as §1, §2, §3, §4

[6] = molecular target: T6, proteins displaced from immobilized biotin-Cmpd 1 pulldowns (U2OS cell lysate) (Homo sapiens, UniProt P22735); conditions: GN=TGM1 (P22735)
T6 construct: endogenous in cells; host or cells: U2OS
T6 sequence (P22735 whole entry): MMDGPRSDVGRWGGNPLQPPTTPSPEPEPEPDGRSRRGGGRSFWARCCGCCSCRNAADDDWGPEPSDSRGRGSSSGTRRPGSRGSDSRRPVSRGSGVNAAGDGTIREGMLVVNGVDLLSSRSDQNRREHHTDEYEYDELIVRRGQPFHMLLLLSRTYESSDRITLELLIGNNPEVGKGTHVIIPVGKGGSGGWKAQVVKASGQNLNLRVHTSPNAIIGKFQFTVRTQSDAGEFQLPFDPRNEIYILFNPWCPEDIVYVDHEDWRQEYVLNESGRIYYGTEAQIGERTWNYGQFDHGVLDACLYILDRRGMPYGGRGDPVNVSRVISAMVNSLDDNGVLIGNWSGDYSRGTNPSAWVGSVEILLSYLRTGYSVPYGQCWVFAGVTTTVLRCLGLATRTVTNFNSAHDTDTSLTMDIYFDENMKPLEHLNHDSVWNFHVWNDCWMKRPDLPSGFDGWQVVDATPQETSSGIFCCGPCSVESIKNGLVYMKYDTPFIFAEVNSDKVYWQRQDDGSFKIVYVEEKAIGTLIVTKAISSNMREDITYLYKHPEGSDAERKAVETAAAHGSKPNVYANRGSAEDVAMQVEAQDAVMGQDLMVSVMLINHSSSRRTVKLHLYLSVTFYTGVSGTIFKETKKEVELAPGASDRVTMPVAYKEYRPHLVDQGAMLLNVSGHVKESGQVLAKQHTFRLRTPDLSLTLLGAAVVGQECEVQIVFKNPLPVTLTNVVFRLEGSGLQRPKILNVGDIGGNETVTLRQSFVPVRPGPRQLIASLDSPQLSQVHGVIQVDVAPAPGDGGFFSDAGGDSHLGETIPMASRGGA
Description: as §1, §2, §3, §4

[7] = molecular target: T7, proteins displaced from immobilized biotin-Cmpd 1 pulldowns (U2OS cell lysate) (Homo sapiens, UniProt Q9UKD2); conditions: GN=MRTO4 (Q9UKD2)
T7 construct: endogenous in cells; host or cells: U2OS
Description: as §1, §2, §3, §4

[8] = molecular target: T8, proteins displaced from immobilized biotin-Cmpd 1 pulldowns (U2OS cell lysate) (Homo sapiens, UniProt Q9UNF1); conditions: GN=MAGED2 (Q9UNF1)
T8 construct: endogenous in cells; host or cells: U2OS
T8 sequence (Q9UNF1 whole entry): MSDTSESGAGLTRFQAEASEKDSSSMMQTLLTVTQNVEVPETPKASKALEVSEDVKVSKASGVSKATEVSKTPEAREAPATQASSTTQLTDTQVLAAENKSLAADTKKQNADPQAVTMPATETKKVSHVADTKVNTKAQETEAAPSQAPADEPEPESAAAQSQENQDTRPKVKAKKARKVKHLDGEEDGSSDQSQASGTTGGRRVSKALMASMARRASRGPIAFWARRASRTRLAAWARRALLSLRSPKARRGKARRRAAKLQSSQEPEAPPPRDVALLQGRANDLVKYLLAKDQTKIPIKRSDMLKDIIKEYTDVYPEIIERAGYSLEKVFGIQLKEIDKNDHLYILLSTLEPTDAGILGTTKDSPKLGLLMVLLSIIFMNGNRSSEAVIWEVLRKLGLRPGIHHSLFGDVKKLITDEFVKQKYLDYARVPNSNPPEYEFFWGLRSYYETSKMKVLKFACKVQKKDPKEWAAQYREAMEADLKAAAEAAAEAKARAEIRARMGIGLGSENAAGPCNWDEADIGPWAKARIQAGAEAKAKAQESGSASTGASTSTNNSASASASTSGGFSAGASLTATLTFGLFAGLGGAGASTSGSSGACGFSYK
Description: as §1, §2, §3, §4

[9] = molecular target: T9, proteins displaced from immobilized biotin-Cmpd 1 pulldowns (U2OS cell lysate) (Homo sapiens, UniProt Q86UE4); conditions: GN=MTDH (Q86UE4)
T9 construct: endogenous in cells; host or cells: U2OS
T9 sequence (Q86UE4 whole entry): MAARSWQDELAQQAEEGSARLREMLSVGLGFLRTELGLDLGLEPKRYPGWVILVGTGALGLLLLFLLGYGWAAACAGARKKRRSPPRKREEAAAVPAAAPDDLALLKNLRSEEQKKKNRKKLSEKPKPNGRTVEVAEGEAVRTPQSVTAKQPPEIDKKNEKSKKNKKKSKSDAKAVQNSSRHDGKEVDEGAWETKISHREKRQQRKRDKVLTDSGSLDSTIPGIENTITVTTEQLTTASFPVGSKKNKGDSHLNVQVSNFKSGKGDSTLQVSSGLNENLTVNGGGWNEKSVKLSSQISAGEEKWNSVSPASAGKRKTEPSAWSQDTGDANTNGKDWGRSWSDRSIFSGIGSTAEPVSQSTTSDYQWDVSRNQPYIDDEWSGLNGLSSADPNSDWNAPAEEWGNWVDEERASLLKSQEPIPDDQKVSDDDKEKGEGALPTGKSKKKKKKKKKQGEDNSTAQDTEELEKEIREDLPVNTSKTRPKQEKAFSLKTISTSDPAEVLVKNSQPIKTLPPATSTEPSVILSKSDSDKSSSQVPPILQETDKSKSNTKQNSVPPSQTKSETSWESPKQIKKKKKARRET
Description: as §1, §2, §3, §4

[10] = molecular target: T10, proteins displaced from immobilized biotin-Cmpd 1 pulldowns (U2OS cell lysate) (Homo sapiens, UniProt Q08945); conditions: GN=SSRP1 (Q08945)
T10 construct: endogenous in cells; host or cells: U2OS
T10 sequence (Q08945 whole entry): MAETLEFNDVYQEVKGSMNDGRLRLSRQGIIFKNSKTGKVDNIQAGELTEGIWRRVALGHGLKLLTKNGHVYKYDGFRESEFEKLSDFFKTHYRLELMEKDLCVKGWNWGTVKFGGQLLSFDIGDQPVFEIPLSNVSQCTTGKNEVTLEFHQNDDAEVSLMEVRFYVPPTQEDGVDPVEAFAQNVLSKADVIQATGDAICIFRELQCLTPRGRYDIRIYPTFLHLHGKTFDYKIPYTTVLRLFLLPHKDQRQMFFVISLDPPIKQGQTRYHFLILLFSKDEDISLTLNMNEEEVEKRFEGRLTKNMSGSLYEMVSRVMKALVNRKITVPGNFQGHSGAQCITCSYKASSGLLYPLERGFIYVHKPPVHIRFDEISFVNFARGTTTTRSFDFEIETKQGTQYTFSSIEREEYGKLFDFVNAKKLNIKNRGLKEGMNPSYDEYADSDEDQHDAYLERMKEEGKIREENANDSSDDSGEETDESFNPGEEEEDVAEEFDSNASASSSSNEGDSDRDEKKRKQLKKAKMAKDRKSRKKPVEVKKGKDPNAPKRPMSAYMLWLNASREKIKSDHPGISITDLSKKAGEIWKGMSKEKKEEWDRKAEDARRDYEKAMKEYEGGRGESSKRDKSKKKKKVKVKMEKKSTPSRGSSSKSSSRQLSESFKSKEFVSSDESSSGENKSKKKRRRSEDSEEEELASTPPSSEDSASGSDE
Description: as §1, §2, §3, §4

Cn1c2c(c(=N)c3c1CCC3)CCC2 [Compound 1, 4-methyl-2,3,4,5,6,7-hexahydrodicyclopenta[b,e]pyridin-8(1H)-imine]
Difference ([1]; Cmpd minus DMSO, -LOG(P-value) 1.31392): 3.089 | iBAQ Cmpd ([1]; replicates 1-3): 19.5486 and 19.2952 and 16.8093 | Difference ([2]; Cmpd minus DMSO, -LOG(P-value) 0.746444): 0.8281 | iBAQ Cmpd ([2]; replicates 1-3): 17.7043 and 17.5809 and 17.383 | Difference ([3]; Cmpd minus DMSO, -LOG(P-value) 1.09295): -1.787 | iBAQ Cmpd ([3]; replicates 1-3): 15.5737 and 16.3289 and 18.0803 | Difference ([4]; Cmpd minus DMSO, -LOG(P-value) 1.35125): 1.168 | iBAQ Cmpd ([4]; replicates 1-3): 20.1986 and 19.3251 and 19.6735 | Difference ([5]; Cmpd minus DMSO, -LOG(P-value) 1.07686): -2.957 | iBAQ Cmpd ([5]; replicates 1-3): 18.482 and 14.8891 and 15.1338 | Difference ([6]; Cmpd minus DMSO, -LOG(P-value) 1.15166): -2.41 | iBAQ Cmpd ([6]; replicates 1-3): 15.9988 and 17.3288 and 14.7232 | Difference ([7]; Cmpd minus DMSO, -LOG(P-value) 1.00789): 2.584 | iBAQ Cmpd ([7]; replicates 1-3): 18.8307 and 17.054 and 17.709 | Difference ([8]; Cmpd minus DMSO, -LOG(P-value) 0.822167): 0.7403 | iBAQ Cmpd ([8]; replicates 1-3): 20.5058 and 20.3034 and 20.4789 | Difference ([9]; Cmpd minus DMSO, -LOG(P-value) 1.04359): 0.4116 | iBAQ Cmpd ([9]; replicates 1-3): 19.4014 and 19.227 and 18.8879 | Difference ([10]; Cmpd minus DMSO, -LOG(P-value) 0.732843): 0.3628 | iBAQ Cmpd ([10]; replicates 1-3): 19.198 and 18.7704 and 18.706

From article PMC9481570, “A small molecule antagonist of SMN disrupts the interaction between SMN and RNAP II” (Nature Communications, 2022)
